Non-standard residues stand in square brackets, D forms with d. Residues, ends and D or L forms follow the SMILES beside them.
Assays:
patients volontaires = test: Topical effect in human volunteers with nickel contact allergy (nickel sulfate patch test); type: in vivo, homme; settings: out of 14 nickel-sensitised persons; cream with 100 µM peptide under occlusive dressing on back skin 2 h before 5 % nickel sulfate patch; read 24 h later
Experimental: Cette étude a été effectuée sur des patients volontaires âgés de 18 à 65 ans, chez lesquels une allergie de contact au nickel était suspectée. Ces patients étaient exempts d'autres maladies cutanées, et les résultats de cette étude montrent qu'ils n'avaient pas d'allergie aux constituants de la crème utilisée comme véhicule.
Au jour 0, on applique avec un pansement occlusif, sur des zones de la peau du dos, d'une part une crème contenant 100 µM du peptide de formule II, et d'autre part la crème seule, sans peptide, utilisée comme placebo.
Deux heures plus tard, on applique sur les mêmes zones de la peau, et aussi sur une zone adjacente non prétraitée, des patchs imprégnés de vaseline contenant du sulfate de nickel à une concentration de 5 %.
24 heures plus tard, on examine les patients. Ceux qui ont développé une réaction d'hypersensibilité de contact sur la zone traitée par le placebo (et aussi sur la zone adjacente n'ayant reçu que l'application de sel de nickel), et qui sont donc des personnes qui étaient déjà sensibilisées au nickel, sont au nombre de 14. Sur ces 14 personnes, 7 n'ont développé aucune réaction d'hypersensibilité de contact sur la zone traitée par le peptide.

souris femelles Balb/C [1] = test: TNCB contact hypersensitivity in mice, peptide injected intravenously before sensitisation (ear swelling); type: in vivo
Experimental: (§1) L'étude est effectuée sur des souris femelles Balb/C âgées de 7 à 10 semaines.
On injecte une dose de 1,5 µg du peptide étudié (en solution dans du tampon PBS contenant 0,1 % de sérum de souris) dans une veine de la queue des souris 2 heures avant la réaction de sensibilisation.
(§2) La réaction de sensibilisation consiste à appliquer au pinceau 100 µl d'une solution à 0,15 % de TNCB dans un mélange acétone-huile d'olive (4:1) sur la peau rasée de l'abdomen des souris.
(§3) La réaction déclenchante est réalisée 7 jours après la réaction de sensibilisation. Cette réaction déclenchante consiste à appliquer sur les deux faces d'une oreille 10 microlitres d'une solution à 0,8 % de TNCB dans un véhicule constitué par le mélange acétone-huile d'olive déjà mentionné ci-dessus.
(§4) Sur l'autre oreille, on applique, pour comparaison, uniquement ce mélange d'acétone et d'huile d'olive.
(§5) On évalue l'intensité d'une éventuelle réaction d'hypersensibilité de contact par estimation de l'importance de l'oedème de l'oreille traitée par le TNCB, en comparaison avec l'oreille traitée par le seul véhicule. Pour cela, on mesure et compare l'épaisseur des oreilles à l'aide d'une vis micrométrique. Cette mesure est effectuée 24 heures après la réaction déclenchante.
On applique également le TNCB sur l'oreille de souris témoins n'ayant pas été préalablement sensibilisée (témoins négatifs). […]

souris femelles Balb/C [2] = test: TNCB contact hypersensitivity in mice after a second sensitisation (tolerance test, ear swelling); type: in vivo
Text: 14 jours après la fin de l'expérience décrite en a) ci-dessus, on soumet les mêmes souris à une nouvelle réaction de sensibilisation sur la peau rasée du dos, comme décrit en a).
7 jours plus tard, on effectue le test de déclenchement par application du TNCB sur l'oreille, et 24 heures plus tard, on mesure le degré de gonflement de l'oreille.
Cette seconde expérience a pour but de faire une distinction entre une éventuelle immunosuppression temporaire aspécifique et une tolérance immunologique spécifique.

souris femelles Balb/C [3] = test: TNCB contact hypersensitivity in mice, peptide applied topically in a water-in-oil cream (ear swelling); type: in vivo; settings: peptide in water-in-oil cream applied on the zone to be sensitised 2 h before sensitisation; measured 24 h after challenge; positive controls 7×10^-2 mm
Experimental: as §1, §2, §3, §4, §5
On opère comme en a) ci-dessus, mais le peptide, incorporé dans une crème de type eau-dans-l'huile, est appliqué sur la zone à sensibiliser 2 heures avant la sensibilisation.

CC(=O)N[C@H](CCCCN)C(=O)N1CCC[C@@H]1C(=O)N[C@@H](C(N)=O)C(C)C [peptide de formule II, Ac-D-Lys-D-Pro-D-Val-NH2] (Ac-[dK]-[dP]-[dV]-NH2)
personnes n'ayant développé aucune réaction d'hypersensibilité de contact sur la zone traitée par le peptide (patients volontaires): 7 | réaction d'hypersensibilité de contact (result in words) (souris femelles Balb/C [1]; 1,5 µg peptide i.v. 2 h before TNCB sensitisation): réduit fortement la réaction d'hypersensibilité de contact | augmentation de l'épaisseur de l'oreille (souris femelles Balb/C [1]; 1,5 µg peptide i.v. (tail vein) 2 h before sensitisation with 0,15 % TNCB, challenge day 7 with 0,8 % TNCB on ear, measured 24 h after challenge, ^-2 mm, negative controls about 1×10^-2 mm): ~2,5×10^-2 mm | hypersensibilité de contact après une seconde dose sensibilisante de TNCB (result in words) (souris femelles Balb/C [2]; mice treated with peptide before the first sensitisation only): n'ont pas développé une hypersensibilité de contact | degré de gonflement de l'oreille (souris femelles Balb/C [2]; same mice re-sensitised with TNCB on the back 14 days after first experiment, no new peptide dose, challenge 7 days later, measured 24 h later, positive controls about 14×10^-2 mm, negative controls about 3,5×10^-2 mm): ~3,5×10^-2 mm | augmentation de l'épaisseur de l'oreille (souris femelles Balb/C [3]): 3×10^-2 mm

— patent publication EP1092427B1, “Use of a peptide avoiding skin intolerance reactions, especially in cosmetic compositions” (L'ORÉAL, priority 1999, dated 2007)
